Assay results as given in patent US8247211B2, “Glycopeptide antibiotics” (American Cyanamid Company, priority 2001, dated 2012).

Legend:
Experiment in all cases: In vitro antibacterial evaluation: minimum inhibitory concentration (MIC), broth dilution method
Assay type in all cases: cell-based
Conditions in all cases: 18 hours at 35° C.
Staphylococcus sp. = test system: Staphylococcus sp.
In short: (§1)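 Following NCCLS approved standard M7-A2, compounds are serially diluted from 64 to 0.06 μg/mL in Muller-Hinton II […] and inoculated at 5×10^5 CFU/mL; the MIC is the minimum concentration at which growth is inhibited.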

Enterococcus sp. = test system: Enterococcus sp.
In short: as §1

Escherichia coli = test system: Escherichia coli
In short: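 Using Muller-Hinton II […] and an inoculum of 5×10^5 CFU/mL, antibiotic dilutions from 64 down to 0.06 μg/mL were tested following NCCLS M7-A2. The MIC is the lowest concentration inhibiting growth, including in methicillin-, penicillin- or vancomycin-resistant clinical isolates.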

Streptococcus sp. = test system: Streptococcus sp.
In short: as §1

[1] = Enterococcus faecalis (ATCC 29212)
[2] = Enterococcus faecalis (GC 2242)
[3] = Enterococcus faecalis (GC 2691)
[4] = Enterococcus faecalis (GC 3059)
[5] = Enterococcus faecalis (GC 4552)
[6] = Enterococcus faecalis (GC 4553)
[7] = Enterococcus faecalis (GC 4554)
[8] = Enterococcus faecalis (GC 6189)
[9] = broth dilution, inoculum 5×10^5 CFU/mL
[10] = Streptococcus agalactiae (GC 4564)
[11] = Streptococcus pneumoniae (ATCC 6301)
[12] = Streptococcus pneumoniae (GC 1894)
[13] = Streptococcus pneumoniae (GC 4565)
[14] = Streptococcus pyogenes (GC 4563)

CC(c1ccccc1)C1NC(=O)CNC(=O)C(CO)NC(=O)C(C(O)C2CNC(=N)N2C2OC(CO)C(O)C(O)C2O)NC(=O)C(C(O)C2CNC(=N)N2)NC(=O)C(Cc2ccc(OC3OC(CO)C(OC4OC(CO)C(O)C(OCc5ccc(OCc6ccccc6)cc5)C4O)C(O)C3O)cc2)NC1=O (stereo not shown) [Example 231c]
2 µg/mL: MIC Coagulase Negative Staphylococcus (GC 4547) (Staphylococcus sp.) | MIC Staphylococcus aureus (GC 1131) (Staphylococcus sp.) | MIC Staphylococcus aureus (GC 3051) (Staphylococcus sp.) | MIC Staphylococcus aureus (GC 3053) (Staphylococcus sp.) | MIC Staphylococcus aureus (GC 4541) (Staphylococcus sp.) | MIC Staphylococcus aureus (GC 4542) (Staphylococcus sp.) | MIC Staphylococcus aureus (GC 4544) (Staphylococcus sp.) | MIC Staphylococcus aureus (GC 4545) (Staphylococcus sp.) | MIC Escherichia coli (GC 4560) (Escherichia coli)
8 µg/mL: MIC Enterococcus faecalis (GC 2691) (Enterococcus sp.; [3]) | MIC Enterococcus faecalis (GC 2691) (Enterococcus sp.; [9])
0.5 µg/mL: MIC Coagulase Negative Staphylococcus (GC 4548) (Staphylococcus sp.) | MIC Coagulase Negative Staphylococcus (GC 4549) (Staphylococcus sp.) | MIC Coagulase Negative Staphylococcus (GC 6257) (Staphylococcus sp.)
<0.12 µg/mL: MIC Streptococcus agalactiae (GC 4564) (Streptococcus sp.; [10]) | MIC Streptococcus pneumoniae (ATCC 6301) (Streptococcus sp.; [11]) | MIC Streptococcus pneumoniae (GC 1894) (Streptococcus sp.; [12]) | MIC Streptococcus pneumoniae (GC 4565) (Streptococcus sp.; [13]) | MIC Streptococcus pyogenes (GC 4563) (Streptococcus sp.; [14]) | MIC Streptococcus agalactiae (GC 4564) (Streptococcus sp.; [9]) | MIC Streptococcus pneumoniae (ATCC 6301) (Streptococcus sp.; [9]) | MIC Streptococcus pneumoniae (GC 1894) (Streptococcus sp.; [9]) | MIC Streptococcus pneumoniae (GC 4565) (Streptococcus sp.; [9]) | MIC Streptococcus pyogenes (GC 4563) (Streptococcus sp.; [9])
4 µg/mL: MIC Enterococcus avium (GC 4558) (Enterococcus sp.; Enterococcus avium (GC 4558)) | MIC Enterococcus faecalis (ATCC 29212) (Enterococcus sp.; [1]) | MIC Enterococcus faecalis (GC 2242) (Enterococcus sp.; [2]) | MIC Enterococcus faecalis (GC 3059) (Enterococcus sp.; [4]) | MIC Enterococcus faecalis (GC 4552) (Enterococcus sp.; [5]) | MIC Enterococcus faecalis (GC 4553) (Enterococcus sp.; [6]) | MIC Enterococcus faecalis (GC 4554) (Enterococcus sp.; [7]) | MIC Enterococcus faecalis (GC 6189) (Enterococcus sp.; [8]) | MIC Enterococcus faecium (GC 2243) (Enterococcus sp.; Enterococcus faecium (GC 2243)) | MIC Enterococcus faecium (GC 4556) (Enterococcus sp.; Enterococcus faecium (GC 4556)) | MIC Enterococcus faecium (GC 4557) (Enterococcus sp.; Enterococcus faecium (GC 4557)) | MIC Enterococcus avium (GC 4558) (Enterococcus sp.; [9]) | MIC Enterococcus faecalis (ATCC 29212) (Enterococcus sp.; [9]) | MIC Enterococcus faecalis (GC 2242) (Enterococcus sp.; [9]) | MIC Enterococcus faecalis (GC 3059) (Enterococcus sp.; [9]) | MIC Enterococcus faecalis (GC 4552) (Enterococcus sp.; [9]) | MIC Enterococcus faecalis (GC 4553) (Enterococcus sp.; [9]) | MIC Enterococcus faecalis (GC 4554) (Enterococcus sp.; [9]) | MIC Enterococcus faecalis (GC 6189) (Enterococcus sp.; [9]) | MIC Enterococcus faecium (GC 2243) (Enterococcus sp.; [9]) | MIC Enterococcus faecium (GC 4556) (Enterococcus sp.; [9]) | MIC Enterococcus faecium (GC 4557) (Enterococcus sp.; [9])
1 µg/mL: MIC Coagulase Negative Staphylococcus (GC 4551) (Staphylococcus sp.) | MIC Staphylococcus aureus (ATCC 29213) (Staphylococcus sp.) | MIC Staphylococcus aureus-SMITH (GC 4543) (Staphylococcus sp.) | MIC Staphylococcus haemolyticus (GC 4546) (Staphylococcus sp.)

COc1ccc(COCC2OC(OC3C(CO)OC(Oc4ccc(CC5NC(=O)C(C(C)c6ccccc6)NC(=O)CNC(=O)C(CO)NC(=O)C(C(O)C6CNC(=N)N6C6OC(CO)C(O)C(O)C6O)NC(=O)C(C(O)C6CNC(=N)N6)NC5=O)cc4)C(O)C3O)C(O)C(O)C2O)cc1 (stereo not drawn) [Example 232, Cyclo[glycyl-β-methylphenylalanyl-O-[4-O-[6-O-(4-methoxybenzyl)hexopyranosyl]hexopyranosyl]tyrosyl-3-(2-iminoimidazolidin-4-yl)seryl-3-(3-hexopyranosyl-2-iminoimidazolidin-4-yl)serylseryl]]
16 µg/mL: MIC Enterococcus faecalis (GC 2242) (Enterococcus sp.; [2]) | MIC Enterococcus faecium (GC 2243) (Enterococcus sp.; Enterococcus faecium (GC 2243)) | MIC Enterococcus faecalis (GC 2242) (Enterococcus sp.; [9]) | MIC Enterococcus faecium (GC 2243) (Enterococcus sp.; [9])
2 µg/mL: MIC Coagulase Negative Staphylococcus (GC 4547) (Staphylococcus sp.) | MIC Coagulase Negative Staphylococcus (GC 4548) (Staphylococcus sp.) | MIC Coagulase Negative Staphylococcus (GC 6257) (Staphylococcus sp.) | MIC Staphylococcus haemolyticus (GC 4546) (Staphylococcus sp.) | MIC Escherichia coli (GC 4560) (Escherichia coli) | MIC Streptococcus agalactiae (GC 4564) (Streptococcus sp.; [10]) | MIC Streptococcus pyogenes (GC 4563) (Streptococcus sp.; [14]) | MIC Streptococcus agalactiae (GC 4564) (Streptococcus sp.; [9]) | MIC Streptococcus pyogenes (GC 4563) (Streptococcus sp.; [9])
32 µg/mL: MIC Enterococcus avium (GC 4558) (Enterococcus sp.; Enterococcus avium (GC 4558)) | MIC Enterococcus faecalis (ATCC 29212) (Enterococcus sp.; [1]) | MIC Enterococcus faecalis (GC 2691) (Enterococcus sp.; [3]) | MIC Enterococcus faecalis (GC 3059) (Enterococcus sp.; [4]) | MIC Enterococcus faecalis (GC 4552) (Enterococcus sp.; [5]) | MIC Enterococcus faecalis (GC 4553) (Enterococcus sp.; [6]) | MIC Enterococcus faecalis (GC 4554) (Enterococcus sp.; [7]) | MIC Enterococcus faecium (GC 4556) (Enterococcus sp.; Enterococcus faecium (GC 4556)) | MIC Enterococcus avium (GC 4558) (Enterococcus sp.; [9]) | MIC Enterococcus faecalis (ATCC 29212) (Enterococcus sp.; [9]) | MIC Enterococcus faecalis (GC 2691) (Enterococcus sp.; [9]) | MIC Enterococcus faecalis (GC 3059) (Enterococcus sp.; [9]) | MIC Enterococcus faecalis (GC 4552) (Enterococcus sp.; [9]) | MIC Enterococcus faecalis (GC 4553) (Enterococcus sp.; [9]) | MIC Enterococcus faecalis (GC 4554) (Enterococcus sp.; [9]) | MIC Enterococcus faecium (GC 4556) (Enterococcus sp.; [9])
64 µg/mL: MIC Enterococcus faecalis (GC 6189) (Enterococcus sp.; [8]) | MIC Enterococcus faecalis (GC 6189) (Enterococcus sp.; [9]) | MIC Escherichia coli (GC 4559) (Escherichia coli)
8 µg/mL: MIC Staphylococcus aureus (GC 3053) (Staphylococcus sp.)
>64 µg/mL: MIC Escherichia coli (ATCC 25922) (Escherichia coli)
1 µg/mL: MIC Coagulase Negative Staphylococcus (GC 4549) (Staphylococcus sp.) | MIC Streptococcus pneumoniae (GC 4565) (Streptococcus sp.; [13]) | MIC Streptococcus pneumoniae (GC 4565) (Streptococcus sp.; [9])
0.5 µg/mL: MIC Streptococcus pneumoniae (ATCC 6301) (Streptococcus sp.; [11]) | MIC Streptococcus pneumoniae (GC 1894) (Streptococcus sp.; [12]) | MIC Streptococcus pneumoniae (ATCC 6301) (Streptococcus sp.; [9]) | MIC Streptococcus pneumoniae (GC 1894) (Streptococcus sp.; [9])
4 µg/mL: MIC Coagulase Negative Staphylococcus (GC 4551) (Staphylococcus sp.) | MIC Staphylococcus aureus (ATCC 29213) (Staphylococcus sp.) | MIC Staphylococcus aureus (GC 1131) (Staphylococcus sp.) | MIC Staphylococcus aureus (GC 3051) (Staphylococcus sp.) | MIC Staphylococcus aureus (GC 4541) (Staphylococcus sp.) | MIC Staphylococcus aureus (GC 4542) (Staphylococcus sp.) | MIC Staphylococcus aureus (GC 4544) (Staphylococcus sp.) | MIC Staphylococcus aureus (GC 4545) (Staphylococcus sp.) | MIC Staphylococcus aureus-SMITH (GC 4543) (Staphylococcus sp.) | MIC Enterococcus faecium (GC 4557) (Enterococcus sp.; Enterococcus faecium (GC 4557)) | MIC Enterococcus faecium (GC 4557) (Enterococcus sp.; [9])

Cc1ccc(COCC2OC(OC3C(CO)OC(Oc4ccc(CC5NC(=O)C(C(C)c6ccccc6)NC(=O)CNC(=O)C(CO)NC(=O)C(C(O)C6CNC(=N)N6C6OC(CO)C(O)C(O)C6O)NC(=O)C(C(O)C6CNC(=N)N6)NC5=O)cc4)C(O)C3O)C(O)C(O)C2O)cc1 (stereo not shown) [Example 234]
0.5 µg/mL: MIC Coagulase Negative Staphylococcus (GC 4549) (Staphylococcus sp.) | MIC Streptococcus agalactiae (GC 4564) (Streptococcus sp.; [10]) | MIC Streptococcus pyogenes (GC 4563) (Streptococcus sp.; [14]) | MIC Streptococcus agalactiae (GC 4564) (Streptococcus sp.; [9]) | MIC Streptococcus pyogenes (GC 4563) (Streptococcus sp.; [9])
8 µg/mL: MIC Enterococcus avium (GC 4558) (Enterococcus sp.; Enterococcus avium (GC 4558)) | MIC Enterococcus faecalis (ATCC 29212) (Enterococcus sp.; [1]) | MIC Enterococcus faecalis (GC 2691) (Enterococcus sp.; [3]) | MIC Enterococcus faecalis (GC 3059) (Enterococcus sp.; [4]) | MIC Enterococcus faecalis (GC 4552) (Enterococcus sp.; [5]) | MIC Enterococcus faecalis (GC 4553) (Enterococcus sp.; [6]) | MIC Enterococcus faecalis (GC 4554) (Enterococcus sp.; [7]) | MIC Enterococcus faecalis (GC 6189) (Enterococcus sp.; [8]) | MIC Enterococcus faecium (GC 2243) (Enterococcus sp.; Enterococcus faecium (GC 2243)) | MIC Enterococcus faecium (GC 4556) (Enterococcus sp.; Enterococcus faecium (GC 4556)) | MIC Enterococcus faecalis (GC 2691) (Enterococcus sp.; [9]) | MIC Enterococcus faecalis (GC 3059) (Enterococcus sp.; [9])
2 µg/mL: MIC Coagulase Negative Staphylococcus (GC 4551) (Staphylococcus sp.) | MIC Staphylococcus aureus (ATCC 29213) (Staphylococcus sp.) | MIC Staphylococcus aureus (GC 1131) (Staphylococcus sp.) | MIC Staphylococcus aureus (GC 3051) (Staphylococcus sp.) | MIC Staphylococcus aureus (GC 3053) (Staphylococcus sp.) | MIC Staphylococcus aureus (GC 4541) (Staphylococcus sp.) | MIC Staphylococcus aureus (GC 4542) (Staphylococcus sp.) | MIC Staphylococcus aureus (GC 4544) (Staphylococcus sp.) | MIC Staphylococcus aureus (GC 4545) (Staphylococcus sp.) | MIC Staphylococcus aureus-SMITH (GC 4543) (Staphylococcus sp.) | MIC Enterococcus faecium (GC 4557) (Enterococcus sp.; Enterococcus faecium (GC 4557))
0.25 µg/mL: MIC Streptococcus pneumoniae (ATCC 6301) (Streptococcus sp.; [11]) | MIC Streptococcus pneumoniae (GC 4565) (Streptococcus sp.; [13]) | MIC Streptococcus pneumoniae (ATCC 6301) (Streptococcus sp.; [9]) | MIC Streptococcus pneumoniae (GC 4565) (Streptococcus sp.; [9])
0.12 µg/mL: MIC Streptococcus pneumoniae (GC 1894) (Streptococcus sp.; [12]) | MIC Streptococcus pneumoniae (GC 1894) (Streptococcus sp.; [9])
4 µg/mL: MIC Enterococcus faecalis (GC 2242) (Enterococcus sp.; [2]) | MIC Enterococcus faecalis (GC 2242) (Enterococcus sp.; [9])
64 µg/mL: MIC Escherichia coli (ATCC 25922) (Escherichia coli) | MIC Escherichia coli (GC 4559) (Escherichia coli)
1 µg/mL: MIC Coagulase Negative Staphylococcus (GC 4547) (Staphylococcus sp.) | MIC Coagulase Negative Staphylococcus (GC 4548) (Staphylococcus sp.) | MIC Coagulase Negative Staphylococcus (GC 6257) (Staphylococcus sp.) | MIC Staphylococcus haemolyticus (GC 4546) (Staphylococcus sp.) | MIC Escherichia coli (GC 4560) (Escherichia coli)
